Test results reported in patent US9120749B2, “Quinoline derivatives and MELK inhibitors containing the same” (ONCOTHERAPY SCIENCE, INC., priority 2010, dated 2015).
Counter-ions that a name gives are not always drawn. Like-named read-outs stand apart in the source and are kept apart here.

Experiments:
[1] = molecular target: MELK (Homo sapiens, UniProt Q14680); experiment: Kinase assay: MELK activity, phosphorylation of FITC-labeled histone H3 peptide measured by IMAP fluorescence polarization; type: biochemical; settings: 50 micro-M ATP, FITC-labeled histone H3 peptide substrate, IMAP fluorescence polarization, read-out: IC50 (μM) (kinase assay)
MELK, sequence (Q14680 whole entry, looked up): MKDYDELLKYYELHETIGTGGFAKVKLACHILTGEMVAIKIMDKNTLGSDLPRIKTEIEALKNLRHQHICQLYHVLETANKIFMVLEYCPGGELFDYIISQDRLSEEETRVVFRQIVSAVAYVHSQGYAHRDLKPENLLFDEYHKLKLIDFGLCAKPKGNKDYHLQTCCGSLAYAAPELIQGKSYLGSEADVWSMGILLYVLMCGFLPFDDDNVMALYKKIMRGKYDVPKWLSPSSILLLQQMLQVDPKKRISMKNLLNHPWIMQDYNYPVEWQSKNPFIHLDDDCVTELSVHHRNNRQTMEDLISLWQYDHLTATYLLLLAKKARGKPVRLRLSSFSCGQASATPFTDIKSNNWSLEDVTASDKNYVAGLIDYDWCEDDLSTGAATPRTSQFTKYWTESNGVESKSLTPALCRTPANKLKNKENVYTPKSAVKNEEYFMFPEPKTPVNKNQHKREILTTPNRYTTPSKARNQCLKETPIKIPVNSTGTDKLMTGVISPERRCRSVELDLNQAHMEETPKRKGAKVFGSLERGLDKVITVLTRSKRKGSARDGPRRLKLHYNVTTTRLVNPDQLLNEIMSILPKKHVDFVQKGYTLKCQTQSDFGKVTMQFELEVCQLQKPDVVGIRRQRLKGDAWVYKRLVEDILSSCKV
Summary of the method: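 A FITC-labelled histone H3 peptide served as substrate, with compounds serially diluted to 1% DMSO final. Reactions were stopped with three volumes of IMAP progressive binding solution. After 0.5 h at room temperature, fluorescence polarization was read.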

[2] = system: T47D cells; experiment: Cell-based assay: anti-proliferative activity, Cell Counting Kit-8, 72 hours (T47D); settings: MELK-expressing, Cell Counting Kit-8 at 72 hours
Summary of the method: (§1)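 T47D, A549 and BT-549 cells, with MELK-negative HT-1197 as control (MELK status checked by western blot), seeded at 2,000–3,000 cells/well. Growth measured by CCK-8 72 hours after inhibitor exposure; IC50 values calculated.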

[3] = system: A549 cells; experiment: Cell-based assay: anti-proliferative activity, Cell Counting Kit-8, 72 hours (A549); settings: MELK-expressing, Cell Counting Kit-8 at 72 hours
Summary of the method: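 Cell Counting Kit-8 read-out of A549 growth after 72 hours of inhibitor exposure, cells plated in 96-well format. Values reported as IC50.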

[4] = system: BT-549 cells; experiment: Cell-based assay: anti-proliferative activity, Cell Counting Kit-8, 72 hours (BT-549); settings: BT549 cells, MELK-expressing, Cell Counting Kit-8 at 72 hours
Procedure: To evaluate the expression status of MELK in several cell lines, western blot analysis was performed using crude cell lysate collected from those cells. Anti-MELK antibody (clone 31, BD Biosciences) was used to visualize the expression.
Active candidate inhibitors against MELK were evaluated for their target-specific cytotoxicity using T47D, A549, BT-549, and HT-1197 cells was used for negative control. 100 micro-L of cell suspension was seeded onto 96-well microtiter plate (ViewPlate-96FTC, PerkinElmer). The initial cell concentration of T47D, A549, BT-549, and HT-1197 were 3,000 cells/well, 2,000 cells/well and 2,500 cells/well, respectively. Cellular growth was determined using Cell Counting Kit-8 (DOJINDO) at 72 hours after the exposure of the candidate inhibitors. […] Accurate IC50 values were calculated as described previously.

[5] = system: HT-1197 cells; experiment: Cell-based assay: anti-proliferative activity, Cell Counting Kit-8, 72 hours (HT-1197, negative control without MELK expression); settings: HT1197 cells, no MELK expression (negative control), Cell Counting Kit-8 at 72 hours
Summary of the method: as §1

Compound | IC50 [1] | IC50 ([2]; Homo sapiens, T47D, 72 h) | IC50 ([3]; Homo sapiens, A549, 72 h) | IC50 ([4]; Homo sapiens, BT-549, 72 h) | IC50 ([5]; Homo sapiens, HT1197, 72 h) | IC50 ([1]; dihydrochloride) | IC50 ([2]; dihydrochloride) | IC50 ([3]; dihydrochloride) | IC50 ([4]; dihydrochloride) | IC50 ([5]; dihydrochloride)
CC(C)C(=O)c1cnc2ccc(-c3cc(F)c(O)c(Cl)c3)cc2c1N[C@H]1CC[C@H](N)CC1 [Example 205, 1-{4-[trans-4-Aminocyclohexylamino]-6-(3-chloro-5-fluoro-4-hydroxyphenyl)quinolin-3-yl}-2-methylpropan-1-one] | 0.01 µM | 0.066 µM | 0.6 µM | 0.15 µM | 2.4 µM | – | – | – | – | –
N[C@H]1CC[C@H](Nc2c(C(=O)C3CC3)cnc3ccc(-c4ccncc4)cc23)CC1 [Example 212, {4-[trans-4-Aminocyclohexylamino]-6-(pyridin-4-yl)quinolin-3-yl}(cyclopropyl)methanone] | 0.054 µM | 2.7 µM | 0.99 µM | 2.5 µM | 7.2 µM | – | – | – | – | –
N[C@H]1CC[C@H](Nc2c(C(=O)C3CC3)cnc3ccc(-c4cn[nH]c4)cc23)CC1 [Example 213, {4-[trans-4-Aminocyclohexylamino]-6-(1H-pyrazol-4-yl)quinolin-3-yl}(cyclopropyl)methanone] | 0.067 µM | 0.89 µM | 5.1 µM | 1.7 µM | 14 µM | – | – | – | – | –
CC(C)C(=O)c1cnc2ccc(-c3cc(F)c(O)c(F)c3)cc2c1N[C@H]1CC[C@H](N)CC1 [Example 214, 1-{4-[trans-4-Aminocyclohexylamino]-6-(3,5-difluoro-4-hydroxyphenyl)quinolin-3-yl}-2-methylpropan-1-one] | 0.043 µM | 0.048 µM | 0.65 µM | 0.084 µM | 1.4 µM | – | – | – | – | –
O=C(c1cnc2ccc(-c3ccc(O)c(Cl)c3)cc2c1NCCN1CCNCC1)C1CC1 [Example 215, {6-(3-Chloro-4-hydroxyphenyl)-4-[2-(piperazin-1-yl)ethylamino]quinolin-3-yl}(cyclopropyl)methanone] | 0.017 µM | 0.92 µM | 1.2 µM | 1.5 µM | 3.9 µM | – | – | – | – | –
CC(C)C(=O)c1cnc2ccc(-c3ccc(O)c(Cl)c3)cc2c1N[C@H]1CC[C@H](N)CC1 [Example 219, 1-{4-[trans-4-Aminocyclohexylamino]-6-(3-chloro-4-hydroxyphenyl)quinolin-3-yl}-2-methylpropan-1-one] | 0.023 µM | 0.11 µM | 0.32 µM | 0.25 µM | 1.2 µM | – | – | – | – | –
CC(C)C(=O)c1cnc2ccc(-c3cc(Cl)c(O)c(Cl)c3)cc2c1N[C@H]1CC[C@H](N)CC1 [Example 225(a), 1-{4-[trans-4-Aminocyclohexylamino]-6-(3,5-dichloro-4-hydroxyphenyl)quinolin-3-yl}-2-methylpropan-1-one] | 0.0025 µM | 0.073 µM | 0.43 µM | 0.18 µM | 2 µM | – | – | – | – | –
CC(C)C(=O)c1cnc2ccc(-c3cc(Cl)c(O)c(Cl)c3)cc2c1N[C@H]1CC[C@H](N)CC1 [Example 225(b), 1-{4-[trans-4-Aminocyclohexylamino]-6-(3,5-dichloro-4-hydroxyphenyl)quinolin-3-yl}-2-methylpropan-1-one dihydrochloride] | – | – | – | – | – | 0.0028 µM | 0.048 µM | 0.22 µM | 0.17 µM | 1.6 µM
CCN(CC)C1CCC(Nc2c(S(C)(=O)=O)cnc3ccc(-c4cc(Cl)c(O)c(OC)c4)cc23)CC1 (stereo not shown) [Example 240, 2-Chloro-4-{4-[4-(diethylamino)cyclohexylamino]-3-(methylsulfonyl)quinolin-6-yl}-6-methoxyphenol dihydrochloride] | 0.0053 µM | 0.97 µM | 0.78 µM | 1.5 µM | 3.8 µM | – | – | – | – | –
COc1cc(-c2ccc3ncc(C(=O)C4CC4)c(NCC4CCNCC4)c3c2)cc(Cl)c1O [Example 243] | 0.0044 µM | 0.33 µM | 0.62 µM | 1.8 µM | 7.3 µM | – | – | – | – | –
COc1cc(-c2ccc3ncc(S(C)(=O)=O)c(N4CCC(C(C)N(C)C)CC4)c3c2)cc(Cl)c1O (stereo not shown) [Example 245, 2-Chloro-4-[4-{4-[1-(dimethylamino)ethyl]piperidin-1-yl}-3-(methylsulfonyl)quinolin-6-yl]-6-methoxyphenol] | 0.0016 µM | 0.35 µM | 0.25 µM | 0.74 µM | 2.3 µM | – | – | – | – | –
